According to ChEMBL document CHEMBL1121672, “Folate antagonists. 19. Synthesis and antimalarial effects of 6-(arylthio)-2,4-pteridinediamines” (1981):
≈ marks a conversion by molar mass, not a printed value.

Key:
Assay type in all cases: functional
Staphylococcus aureus [1] = experiment: Compound tested in vitro for antibacterial activity against Staphylococcus aureus(UC-76)
Staphylococcus aureus [2] = experiment: Compound tested in vitro for antibacterial activity against Staphylococcus aureus (S18713)
Enterococcus faecalis = experiment: Compound tested in vitro for antibacterial activity against Streptococcus faecalis(MGH-2)

Row | SMILES | MIC (Staphylococcus aureus [1]) [µg/mL] | MIC (Staphylococcus aureus [2]) [µg/mL] | MIC (Enterococcus faecalis) [µg/mL]
1 | Nc1nc(N)c2nc(Sc3cccc4ccccc34)cnc2n1 | < 0.25 | 1.5 (≈ 4.68 µM) | < 0.25
2 | Nc1nc(N)c2nc(Sc3cc(Cl)c(Cl)cc3Cl)cnc2n1 | > 25 | > 25 | 5 (≈ 13.4 µM)
3 | Nc1nc(N)c2nc(Sc3ccc(Cl)c(Cl)c3)cnc2n1 | > 25 | > 25 | 2 (≈ 5.9 µM)
4 | Nc1nc(N)c2nc(Sc3cccc(C(F)(F)F)c3)cnc2n1 | < 0.25 | < 0.25 | < 0.25
5 | CN(C)/C=N\c1nc(/N=C/N(C)C)nc2ncc(Sc3ccc(Cl)c(Cl)c3)nc12 | > 25 | > 25 | < 0.25
6 | Nc1nc(N)c2nc(Sc3ccc4ccccc4c3)cnc2n1 | > 25 | > 25 | 1.5 (≈ 4.68 µM)
7 | COc1ccc(Sc2cnc3nc(N)nc(N)c3n2)cc1 | 2 (≈ 6.66 µM) | 2 (≈ 6.66 µM) | < 0.25
